Assay results: patent publication US20230021483A1, “[…] […] METHOD AND CLASSIFICATION OF PHARMACEUTICAL COMPONENTS BY USING TRANSCRIPTOMES” (National Institutes of Biomedical Innovation, Health and …, priority 2016, published 2023)

Tested on: adjuvant-associated biological themes in LV, SP, LN
Conditions: LV, ID
Excerpt: A defined sets of genes were selected according to specified criteria (e.g., FC, PA-call, threshold values). Their functional enrichment values were then obtained from TargetMine (Chen, Y. A., Tripathi, L. P. & Mizuguchi, K. PloS one 6, e17844 (2011)) (http://targetmine.mizuguchilab.org/) using the API interface. The following resources were used throughout the analysis via TargetMine Interface (GO, GOSlim, Integrated Pathway, KEGG, Reactome, and the NCI pathway). The Holm-Bonferroni method was used for multiple testing corrections.
Whole organ transcriptome data for each organ from each mouse were analyzed as follows to obtain biological themes for individual samples from each adjuvant-administered group of three mice. […] A set of Pj genes was first defined, where eij/ei(c)>2.0. Biological themes enriched within Pj were then identified using TargetMine (Chen, Y. A. et al., PloS one 6, e17844 (2011)) (http://targetmine.mizuguchilab.org/). Tj denote the resulting list of biological themes, with associated p-values from Fischer's exact test.
Next, the biological themes called by all the individual samples in the group were scored as follows. Having obtained three lists (T1, T2 and T3) for a given experimental condition, a consensus list T of themes was created as T={(t1, p1), (t2, p2), . . . }, where ti is a biological theme that appears in all of T1, T2 and T3, and pi is the smallest of the associated p-values. Only the themes with the p-value of <0.05 were included in T.
To summarize the biological themes in T further, a list of terms considered to be associated with adjuvant activity in general was separately prepared. AT={at1, at2, . . . }, where ati is a pre-selected adjuvant-associated term (e.g., “stress” or “cytokine”). Finally, an enrichment score S for an adjuvant-associated term ati was defined as: S(ati)=Σ−log(pj), where the name of tj in T includes a term ati as a substring and pj is the associated p-value.
This scoring scheme summarizes the relative enrichment of pre-selected adjuvant-associated terms in genes responding to each adjuvant in each organ.

Substance: Poly_IC
- IFN alpha, GO annotation line 1 of 5: 13.3
- IFN alpha, GO annotation line 2 of 5: 4.7
- IFN alpha: cellular response to interferon-alpha: 4.95
- IFN alpha: positive regulation of interferon-alpha production: 5.95
- IFN alpha: regulation of interferon-alpha production: 5.3
- IFN beta: cellular response to interferon-beta: 17.2
- IFN beta: interferon-beta production: 9.35
- IFN beta: positive regulation of interferon-beta production: 8.94
- IFN beta: regulation of interferon-beta production: 7.54
- IFN beta: response to interferon-beta: 23
- IFN gamma: cellular response to interferon-gamma: 10.5
- IFN gamma: interferon-gamma production: 5.43
- IFN gamma: regulation of interferon-gamma production: 5.32
- IFN gamma: response to interferon-gamma: 22.3
- NF-kappa B signaling pathway, GO annotation line 1 of 4: 18
- NF-kappa B signaling pathway, GO annotation line 2 of 4: 13.5
- NF-kappa B signaling pathway, GO annotation line 3 of 4: 8.57
- NF-kappa B signaling pathway, GO annotation line 4 of 4: 9.04
- TNF signaling pathway: 22.1
- adaptive immune response, GO annotation line 1 of 5: 11.9
- adaptive immune response, GO annotation line 2 of 5: 13
- adaptive immune response, GO annotation line 3 of 5: 7.16
- adaptive immune response, GO annotation line 4 of 5: 6.84
- adaptive immune response, GO annotation line 5 of 5: 0
- apoptosis, GO annotation line 1 of 8: 15.7
- apoptosis, GO annotation line 2 of 8: 14.8
- apoptosis, GO annotation line 3 of 8: 12.4
- apoptosis, GO annotation line 4 of 8: 7.32
- apoptosis, GO annotation line 5 of 8: 3.59
- apoptosis, GO annotation line 6 of 8: 7.04
- apoptosis, GO annotation line 7 of 8: 4.79
- apoptosis, GO annotation line 8 of 8: 0
- cell death, GO annotation line 1 of 9: 22.6
- cell death, GO annotation line 2 of 9: 17.8
- cell death, GO annotation line 3 of 9: 18.1
- cell death, GO annotation line 4 of 9: 15.4
- cell death, GO annotation line 5 of 9: 15.6
- cell death, GO annotation line 6 of 9: 4.25
- cell death, GO annotation line 7 of 9: 3.46
- cell death, GO annotation line 8 of 9: 4.38
- cell death, GO annotation line 9 of 9: 4.89
- chemokine, GO annotation line 1 of 4: 6.25
- chemokine, GO annotation line 2 of 4: 7.84
- chemokine, GO annotation line 3 of 4: 9.13
- chemokine, GO annotation line 4 of 4: 9
- chemotaxis, GO annotation line 1 of 11: 20.7
- chemotaxis, GO annotation line 2 of 11: 6.87
- chemotaxis, GO annotation line 3 of 11: 22
- chemotaxis, GO annotation line 4 of 11: 13.1
- chemotaxis, GO annotation line 5 of 11: 6.8
- chemotaxis, GO annotation line 6 of 11: 7.42
- chemotaxis, GO annotation line 7 of 11: 7.6
- chemotaxis, GO annotation line 8 of 11: 8.31
- chemotaxis, GO annotation line 9 of 11: 9.92
- chemotaxis, GO annotation line 10 of 11: 6.5
- chemotaxis, GO annotation line 11 of 11: 3.15
- cytokine, GO annotation line 1 of 17: 66.1
- cytokine, GO annotation line 2 of 17: 48.5
- cytokine, GO annotation line 3 of 17: 42.3
- cytokine, GO annotation line 4 of 17: 12.1
- cytokine, GO annotation line 5 of 17: 45.6
- cytokine, GO annotation line 6 of 17: 43.5
- cytokine, GO annotation line 7 of 17: 20.9
- cytokine, GO annotation line 8 of 17: 7.3
- cytokine, GO annotation line 9 of 17: 8.4
- cytokine, GO annotation line 10 of 17: 34.3
- cytokine, GO annotation line 11 of 17: 12.6
- cytokine, GO annotation line 12 of 17: 4.18
- cytokine, GO annotation line 13 of 17: 15
- cytokine, GO annotation line 14 of 17: 14.5
- cytokine, GO annotation line 15 of 17: 3.4
- cytokine, GO annotation line 16 of 17: 3.66
- cytokine, GO annotation line 17 of 17: 5.29
- defense response, GO annotation line 1 of 11: 90.6
- defense response, GO annotation line 2 of 11: 57.5
- defense response, GO annotation line 3 of 11: 41.3
- defense response, GO annotation line 4 of 11: 48.9
- defense response, GO annotation line 5 of 11: 15.8
- defense response, GO annotation line 6 of 11: 6.93
- defense response, GO annotation line 7 of 11: 4.67
- defense response, GO annotation line 8 of 11: 25.8
- defense response, GO annotation line 9 of 11: 6.75
- defense response, GO annotation line 10 of 11: 4.62
- defense response, GO annotation line 11 of 11: 0
- immune response, GO annotation line 1 of 8: 79.8
- immune response, GO annotation line 2 of 8: 35.5
- immune response, GO annotation line 3 of 8: 39.5
- immune response, GO annotation line 4 of 8: 23.2
- immune response, GO annotation line 5 of 8: 20.5
- immune response, GO annotation line 6 of 8: 23.7
- immune response, GO annotation line 7 of 8: 3.8
- immune response, GO annotation line 8 of 8: 4.58
- inflammatory response, GO annotation line 1 of 5: 32.2
- inflammatory response, GO annotation line 2 of 5: 14.4
- inflammatory response, GO annotation line 3 of 5: 5.99
- inflammatory response, GO annotation line 4 of 5: 0
- inflammatory response, GO annotation line 5 of 5: 0
- innate immune response, GO annotation line 1 of 6: 59.5
- innate immune response, GO annotation line 2 of 6: 40.7
- innate immune response, GO annotation line 3 of 6: 27.7
- innate immune response, GO annotation line 4 of 6: 23.3
- innate immune response, GO annotation line 5 of 6: 18.5
- innate immune response, GO annotation line 6 of 6: 7.74
- interleukin-6: interleukin-6 production: 9.62
- interleukin-6: positive regulation of interleukin-6 production: 5.06
- interleukin-6: regulation of interleukin-6 production: 10.2
- interleukin-12: interleukin-12 production: 6.82
- interleukin-12: positive regulation of interleukin-12 production: 4.28
- interleukin-12: regulation of interleukin-12 production: 7.39
- migration, GO annotation line 1 of 10: 22.1
- migration, GO annotation line 2 of 10: 6.99
- migration, GO annotation line 3 of 10: 23.4
- migration, GO annotation line 4 of 10: 18.5
- migration, GO annotation line 5 of 10: 9
- migration, GO annotation line 6 of 10: 9.34
- migration, GO annotation line 7 of 10: 8.14
- migration, GO annotation line 8 of 10: 7.59
- migration, GO annotation line 9 of 10: 6.05
- migration, GO annotation line 10 of 10: 3.46
- stress, GO annotation line 1 of 3: 58.8
- stress, GO annotation line 2 of 3: 40.8
- stress, GO annotation line 3 of 3: 5.39
- wounding, GO annotation line 1 of 3: 16.7
- wounding, GO annotation line 2 of 3: 14.8
- wounding, GO annotation line 3 of 3: 9.8
